Assay results: the supplement of paper PMC8617591

Columns and labels:
[1] = system: Mycobacterium tuberculosis Erdman (autoluminescent); experiment: GRinf, maximum normalised growth rate inhibition (three-drug combination) (unitless (-1 to 1)); higher = less effect (negative = killing)
Experimental: (§1)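 DiaMOND equipotent three-drug combination dose responses (10 doses, 1.5- or 2-fold spacing, centred on IC90) against autoluminescent M. tuberculosis Erdman in 8 in vitro models. Read-out is OD600, or luminescence for the intracellular and dormancy models, normalised to untreated wells. Hill-fit Einf, AUC25 and GRinf are potency metrics; FIC50 and FIC90 are total Loewe fractional inhibitory concentrations as log2 (negative = synergy).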

[2] = system: Mycobacterium tuberculosis Erdman (autoluminescent); experiment: AUC25, normalised area under dose response up to IC25 (three-drug combination) (fraction (0-1)); higher = more potent at low dose
Experimental: as §1

[3] = system: Mycobacterium tuberculosis Erdman (autoluminescent); experiment: total FIC50 (Loewe) at 50% inhibition, three-drug combination (log2); higher = more antagonistic
Experimental: as §1

[4] = system: Mycobacterium tuberculosis Erdman (autoluminescent); experiment: Einf, fitted maximum growth inhibition of three-drug combination (fraction); higher = stronger maximal inhibition
Experimental: as §1

[5] = system: Mycobacterium tuberculosis Erdman (autoluminescent); experiment: total FIC90 (Loewe) at 90% inhibition, three-drug combination (log2); higher = more antagonistic
Experimental: as §1

NNC(=O)c1ccncc1 [isoniazid] + CC(=O)NC[C@H]1CN(c2ccc(N3CCOCC3)c(F)c2)C(=O)O1 [linezolid] + NC(=O)c1cnccn1 [pyrazinamide]
Details	AUC25, [2]	Einf, [4]	GRinf, [1]	total FIC50, [3]	total FIC90, [5]
in vitro model: acidic pH 5.7, time point: constant (~7 days, model-specific)	0.11	0.842	-0.287	-1.93	–
in vitro model: acidic pH 5.7, time point: terminal (~4-5 doublings, model-specific)	0.0984	0.983	-0.282	-1.83	-1.21
in vitro model: intracellular J774, time point: constant = terminal	–	0.956	-0.246	–	0.444

Details	AUC25, [2]	Einf, [4]	GRinf, [1]	total FIC50, [3]	total FIC90, [5]
in vitro model: butyrate, time point: constant (~7 days, model-specific)	0.108	0.91	0.0266	-1.9	1.62
in vitro model: butyrate, time point: terminal (~4-5 doublings, model-specific)	0.08	0.955	0.0226	-1.67	-1.24
in vitro model: cholesterol 0.05 mM, time point: constant (~7 days, model-specific)	0.144	0.686	-0.218	–	–
in vitro model: cholesterol 0.05 mM, time point: terminal (~4-5 doublings, model-specific)	0.14	0.89	-0.273	4.08	–
in vitro model: cholesterol-high 0.2 mM, time point: constant (~7 days, model-specific)	0.0969	0.893	-0.233	0.365	–
in vitro model: cholesterol-high 0.2 mM, time point: terminal (~4-5 doublings, model-specific)	0.0817	1	-0.765	0.683	0.315
in vitro model: dormancy (butyrate + nitrate, low O2), time point: constant (~7 days, model-specific)	0.0523	0.9	0.189	-1.89	-2.36
in vitro model: dormancy (butyrate + nitrate, low O2), time point: terminal (~4-5 doublings, model-specific)	0.0408	0.987	-0.229	-1.99	-2.42
in vitro model: standard 7H9 glycerol, time point: constant = terminal	0.0756	0.939	-0.0363	-5.13	–
in vitro model: valerate, time point: constant (~7 days, model-specific)	0.0944	0.836	0.0599	-2.58	–
in vitro model: valerate, time point: terminal (~4-5 doublings, model-specific)	0.0892	0.927	0.0322	-2.64	-3

NNC(=O)c1ccncc1 [isoniazid] + CC(=O)NC[C@H]1CN(c2ccc(N3CCOCC3)c(F)c2)C(=O)O1 [linezolid] + O=[N+]([O-])c1cn2c(n1)OC[C@@H](OCc1ccc(OC(F)(F)F)cc1)C2 [pretomanid]
Details	AUC25, [2]	Einf, [4]	GRinf, [1]	total FIC50, [3]	total FIC90, [5]
in vitro model: acidic pH 5.7, time point: constant (~7 days, model-specific)	0.0901	0.793	-0.0622	4.28	–
in vitro model: acidic pH 5.7, time point: terminal (~4-5 doublings, model-specific)	0.0757	0.953	-0.252	4.74	4.06
in vitro model: intracellular J774, time point: constant = terminal	–	0.984	-0.382	–	1.1

Details	AUC25, [2]	Einf, [4]	GRinf, [1]	total FIC50, [3]	total FIC90, [5]
in vitro model: butyrate, time point: constant (~7 days, model-specific)	0.103	0.921	-0.0322	2.79	1.15
in vitro model: butyrate, time point: terminal (~4-5 doublings, model-specific)	0.0738	0.963	-0.0424	2.83	3.23
in vitro model: cholesterol 0.05 mM, time point: constant (~7 days, model-specific)	0.129	0.69	-0.147	1.32	–
in vitro model: cholesterol 0.05 mM, time point: terminal (~4-5 doublings, model-specific)	0.124	0.912	-0.296	8.62	1.89
in vitro model: cholesterol-high 0.2 mM, time point: constant (~7 days, model-specific)	0.107	0.924	-0.361	0.772	–
in vitro model: cholesterol-high 0.2 mM, time point: terminal (~4-5 doublings, model-specific)	0.101	0.991	-0.726	0.566	1.06
in vitro model: dormancy (butyrate + nitrate, low O2), time point: constant (~7 days, model-specific)	0.0625	0.868	0.121	4.26	4.03
in vitro model: dormancy (butyrate + nitrate, low O2), time point: terminal (~4-5 doublings, model-specific)	0.0423	0.987	-0.233	4.19	4.02
in vitro model: standard 7H9 glycerol, time point: constant = terminal	0.0856	0.917	0.116	4.72	6.4
in vitro model: valerate, time point: constant (~7 days, model-specific)	0.126	0.88	0.0789	2.28	8.43
in vitro model: valerate, time point: terminal (~4-5 doublings, model-specific)	0.0856	0.93	0.029	2.36	2.72

NNC(=O)c1ccncc1 [isoniazid] + CO[C@H]1/C=C/O[C@@]2(C)Oc3c(C)c(O)c4c(O)c(c(/C=N/N5CCN(C6CCCC6)CC5)c(O)c4c3C2=O)NC(=O)/C(C)=C\C=C\[C@H](C)[C@H](O)[C@@H](C)[C@@H](O)[C@@H](C)[C@H](OC(C)=O)[C@@H]1C [rifapentine] + CO[C@H]1/C=C/O[C@@]2(C)Oc3c(C)c(O)c4c(O)c(c(/C=N/N5CCN(C)CC5)c(O)c4c3C2=O)NC(=O)/C(C)=C\C=C\[C@H](C)[C@H](O)[C@@H](C)[C@@H](O)[C@@H](C)[C@H](OC(C)=O)[C@@H]1C [rifampicin]
Details	AUC25, [2]	Einf, [4]	GRinf, [1]	total FIC50, [3]	total FIC90, [5]
in vitro model: acidic pH 5.7, time point: constant (~7 days, model-specific)	0.0821	0.87	-0.0825	0.753	–
in vitro model: acidic pH 5.7, time point: terminal (~4-5 doublings, model-specific)	0.0679	0.98	-0.129	0.528	0.407
in vitro model: intracellular J774, time point: constant = terminal	–	0.936	-0.1	–	0.217

Details	AUC25, [2]	Einf, [4]	GRinf, [1]	total FIC50, [3]	total FIC90, [5]
in vitro model: butyrate, time point: constant (~7 days, model-specific)	0.104	0.922	0.00523	0.263	0.467
in vitro model: butyrate, time point: terminal (~4-5 doublings, model-specific)	0.0874	0.967	0.000636	0.203	0.338
in vitro model: cholesterol 0.05 mM, time point: constant (~7 days, model-specific)	0.112	0.62	0.0102	0.806	–
in vitro model: cholesterol 0.05 mM, time point: terminal (~4-5 doublings, model-specific)	0.0884	0.883	-0.129	0.447	-0.00675
in vitro model: cholesterol-high 0.2 mM, time point: constant (~7 days, model-specific)	0.068	0.913	-0.352	0.176	–
in vitro model: cholesterol-high 0.2 mM, time point: terminal (~4-5 doublings, model-specific)	0.055	0.998	-0.762	0.475	0.196
in vitro model: dormancy (butyrate + nitrate, low O2), time point: constant (~7 days, model-specific)	0.0473	0.859	0.242	-0.0392	-0.445
in vitro model: dormancy (butyrate + nitrate, low O2), time point: terminal (~4-5 doublings, model-specific)	0.0455	0.984	-0.157	-0.192	-0.199
in vitro model: standard 7H9 glycerol, time point: constant = terminal	0.0666	0.906	0.0924	0.523	–
in vitro model: valerate, time point: constant (~7 days, model-specific)	0.0385	0.881	-0.0115	0.498	–
in vitro model: valerate, time point: terminal (~4-5 doublings, model-specific)	0.0262	0.941	0.00295	0.354	0.159

NNC(=O)c1ccncc1 [isoniazid] + COc1c(N2C[C@@H]3CCCN[C@@H]3C2)c(F)cc2c(=O)c(C(=O)O)cn(C3CC3)c12 [moxifloxacin] + CO[C@H]1/C=C/O[C@@]2(C)Oc3c(C)c(O)c4c(O)c(c(/C=N/N5CCN(C6CCCC6)CC5)c(O)c4c3C2=O)NC(=O)/C(C)=C\C=C\[C@H](C)[C@H](O)[C@@H](C)[C@@H](O)[C@@H](C)[C@H](OC(C)=O)[C@@H]1C [rifapentine]
Details	AUC25, [2]	Einf, [4]	GRinf, [1]	total FIC50, [3]	total FIC90, [5]
in vitro model: acidic pH 5.7, time point: constant (~7 days, model-specific)	0.0764	0.856	-0.0715	0.631	–
in vitro model: acidic pH 5.7, time point: terminal (~4-5 doublings, model-specific)	0.0472	0.974	-0.112	0.694	0.483
in vitro model: intracellular J774, time point: constant = terminal	–	0.952	-0.208	–	0.563

Details	AUC25, [2]	Einf, [4]	GRinf, [1]	total FIC50, [3]	total FIC90, [5]
in vitro model: butyrate, time point: constant (~7 days, model-specific)	0.0757	0.917	0.00281	0.673	0.414
in vitro model: butyrate, time point: terminal (~4-5 doublings, model-specific)	0.0584	0.965	0.00571	0.595	0.447
in vitro model: cholesterol 0.05 mM, time point: constant (~7 days, model-specific)	0.102	0.644	-0.051	0.862	–
in vitro model: cholesterol 0.05 mM, time point: terminal (~4-5 doublings, model-specific)	0.0878	0.88	-0.115	0.866	0.95
in vitro model: cholesterol-high 0.2 mM, time point: constant (~7 days, model-specific)	0.0823	0.922	-0.472	0.636	–
in vitro model: cholesterol-high 0.2 mM, time point: terminal (~4-5 doublings, model-specific)	0.0703	1	-0.778	0.916	0.976
in vitro model: dormancy (butyrate + nitrate, low O2), time point: constant (~7 days, model-specific)	0.0676	0.866	0.268	0.401	0.429
in vitro model: dormancy (butyrate + nitrate, low O2), time point: terminal (~4-5 doublings, model-specific)	0.0486	0.97	-0.0791	0.655	0.61
in vitro model: standard 7H9 glycerol, time point: constant = terminal	0.0438	0.911	0.0464	0.774	0.752
in vitro model: valerate, time point: constant (~7 days, model-specific)	0.0564	0.866	-0.0209	0.608	–
in vitro model: valerate, time point: terminal (~4-5 doublings, model-specific)	0.0386	0.933	-0.00377	0.659	0.621

NNC(=O)c1ccncc1 [isoniazid] + COc1c(N2C[C@@H]3CCCN[C@@H]3C2)c(F)cc2c(=O)c(C(=O)O)cn(C3CC3)c12 [moxifloxacin] + CO[C@H]1/C=C/O[C@@]2(C)Oc3c(C)c(O)c4c(O)c(c(/C=N/N5CCN(C)CC5)c(O)c4c3C2=O)NC(=O)/C(C)=C\C=C\[C@H](C)[C@H](O)[C@@H](C)[C@@H](O)[C@@H](C)[C@H](OC(C)=O)[C@@H]1C [rifampicin]
Details	AUC25, [2]	Einf, [4]	GRinf, [1]	total FIC50, [3]	total FIC90, [5]
in vitro model: acidic pH 5.7, time point: constant (~7 days, model-specific)	0.0693	0.835	-0.0692	0.568	–
in vitro model: acidic pH 5.7, time point: terminal (~4-5 doublings, model-specific)	0.0605	0.974	-0.11	0.624	0.457
in vitro model: intracellular J774, time point: constant = terminal	–	0.969	-0.238	–	0.594

Details	AUC25, [2]	Einf, [4]	GRinf, [1]	total FIC50, [3]	total FIC90, [5]
in vitro model: butyrate, time point: constant (~7 days, model-specific)	0.104	0.934	-0.00353	0.315	0.977
in vitro model: butyrate, time point: terminal (~4-5 doublings, model-specific)	0.0772	0.969	0.000303	0.345	0.38
in vitro model: cholesterol 0.05 mM, time point: constant (~7 days, model-specific)	0.0843	0.603	0.0201	0.719	–
in vitro model: cholesterol 0.05 mM, time point: terminal (~4-5 doublings, model-specific)	0.0746	0.87	-0.125	1.04	0.125
in vitro model: cholesterol-high 0.2 mM, time point: constant (~7 days, model-specific)	0.0802	0.879	-0.196	0.265	–
in vitro model: cholesterol-high 0.2 mM, time point: terminal (~4-5 doublings, model-specific)	0.0682	1	-0.836	0.508	0.443
in vitro model: dormancy (butyrate + nitrate, low O2), time point: constant (~7 days, model-specific)	0.0766	0.882	0.232	0.163	-0.336
in vitro model: dormancy (butyrate + nitrate, low O2), time point: terminal (~4-5 doublings, model-specific)	0.0621	0.98	-0.102	0.14	0.342
in vitro model: standard 7H9 glycerol, time point: constant = terminal	0.0275	0.873	0.197	0.736	–
in vitro model: valerate, time point: constant (~7 days, model-specific)	0.0382	0.865	0.0264	0.773	–
in vitro model: valerate, time point: terminal (~4-5 doublings, model-specific)	0.0263	0.93	0.0382	0.731	0.407
